Like-named read-outs stand apart in the source and are kept apart here.
Experiments:
[1] = test system: Botrytis cinerea; assay: Example C: in vivo preventive test (grey mould) on gherkin or cabbage; settings: 500 ppm of active ingredient, preventive spray, evaluated 4 to 5 days after inoculation, read-out: efficacy
Description: Solvent: 5% by volume of dimethyl sulfoxide • 10% by volume of acetone Emulsifier: 1 μl of Tween® 80 per mg of active ingredient The tested compounds were made soluble and homogenized in a mixture of dimethyl sulfoxide/acetone/Tween® 80 and then diluted in water to the desired concentration. The young plants of gherkin or cabbage were treated by spraying the tested compound prepared as described above. Control plants were treated only with an aqueous solution of acetone/dimethyl sulfoxide/Tween® 80. After 24 hours, the plants were contaminated by spraying the leaves with an aqueous suspension of Botrytis cinerea spores. The contaminated gherkin plants were incubated for 4 to 5 days at 17° C. and at 90% relative humidity. The contaminated cabbage plants were incubated for 4 to 5 days at 20° C. and at 100% relative humidity. The test was evaluated 4 to 5 days after the inoculation. 0% means an efficacy which corresponds to that of the control plants while an efficacy of 100% means that no disease was observed.

[2] = test system: Alternaria brassicae; assay: Example E: in vivo preventive test (cabbage); settings: 144 h, 500 ppm of tested compound, preventive spray, evaluated 6 days after inoculation, read-out: efficacy
Description: Solvent: 5% by volume of dimethyl sulfoxide • 10% by volume of acetone Emulsifier: 1 μL of Tween® 80 per mg of active ingredient The tested compounds were made soluble and homogenized in a mixture of Dimethyl sulfoxide/Acetone/Tween® 80 and then diluted in water to the desired concentration. The young plants of cabbage were treated by spraying the tested compound prepared as described above. Control plants were treated only with an aqueous solution of Acetone/Dimethyl sulfoxide/Tween® 80. After 24 hours, the plants were contaminated by spraying the leaves with an aqueous suspension of Alternaria brassicae spores. The contaminated cabbage plants were incubated for 6 days at 20° C. and at 100% relative humidity. The test was evaluated 6 days after the inoculation. 0% means an efficacy which corresponds to that of the control plants while an efficacy of 100% means that no disease was observed.

[3] = Log P by HPLC on reversed phase columns, method [a] (EEC directive 79/831 Annex V.A8); format: physicochemical; settings: reversed phase HPLC column
How it was run: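 Log P calibrated with C3–C16 straight-chain alkan-2-ones of known Log P, interpolating linearly between retention times. Method per EEC 79/831 Annex V.A8: reversed-phase LC-UV in the acidic range, water/0.1% formic acid and acetonitrile gradient from 10% to 95% acetonitrile.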

[4] = test system: Phakopsora pachyrhizi; assay: Example F: in vivo preventive test (soybeans), DMSO/acetone/Tween 80; settings: 288 h, 500 ppm of tested compound, preventive spray, soybean, evaluated 12 days after inoculation, read-out: efficacy
Description: Solvent: 5% by volume of dimethyl sulfoxide • 10% by volume of acetone
Emulsifier: 1 μL of Tween® 80 per mg of active ingredient
The tested compounds were made soluble and homogenized in a mixture of dimethyl sulfoxide/acetone/Tween® 80 and then diluted in water to the desired concentration.
The young plants of wheat were treated by spraying the tested compound prepared as described above. Control plants were treated only with an aqueous solution of acetone/dimethyl sulfoxide/Tween® 80.
After 24 hours, the plants were contaminated by spraying the leaves with an aqueous suspension of Phakospora pachyrhizi spores. The contaminated soybean plants were incubated for 24 hours at 24° C. and at 100% relative humidity and then for 11 days at 24° C. and at 70-80% relative humidity.
The test was evaluated 12 days after the inoculation. 0% means an efficacy which corresponds to that of the control plants while an efficacy of 100% means that no disease was observed.

[5] = test system: Colletotrichum lindemuthianum; assay: Example B: in vitro cell test, spore germination and mycelium growth in liquid culture; format: cell-based; settings: 144 h, 20 ppm of tested compound, 6 days incubation, read-out: efficacy (inhibition of fungal growth)
How it was run: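 Compounds in DMSO (final ≤1%) added to glucose/peptone/yeast extract liquid medium containing C. lindemuthianum spores. After 6 days incubation, mycelium growth measured spectrometrically; inhibition calculated from absorbance versus compound-free control wells.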

[6] = test system: Puccinia recondita; assay: Example D: in vivo preventive test (brown rust on wheat); settings: 264 h, 500 ppm of tested compound, preventive spray, evaluated 11 days after inoculation, read-out: efficacy
Description: Solvent: 5% by volume of dimethyl sulfoxide • 10% by volume of acetone Emulsifier: 1 μL of Tween® 80 per mg of active ingredient The tested compounds were made soluble and homogenized in a mixture of dimethyl sulfoxide/acetone/Tween® 80 and then diluted in water to the desired concentration. The young plants of wheat were treated by spraying the tested compound prepared as described above. Control plants were treated only with an aqueous solution of acetone/dimethyl sulfoxide/Tween® 80. After 24 hours, the plants were contaminated by spraying the leaves with an aqueous suspension of Puccinia recondita spores. The contaminated wheat plants were incubated for 24 hours at 20° C. and at 100% relative humidity and then for 10 days at 20° C. and at 70-80% relative humidity. The test was evaluated 11 days after the inoculation. 0% means an efficacy which corresponds to that of the control plants while an efficacy of 100% means that no disease was observed.

[7] = method [a], HPLC on reversed phase columns, read-out: logP
[8] = log P determined according to method [a] (HPLC on reversed phase columns), read-out: logP

Work on `Fc1ccccc1Nc1ccc(-c2nnc(C(F)(F)Cl)o2)cn1` [I.053, 5-{5-[chloro(difluoro)methyl]-1,3,4-oxadiazol-2-yl}-N-(2-fluorophenyl)pyridin-2-amine] yielded a pest or weed control at 500 ppm [1] of 80 to 89%.

`FC(F)c1nnc(-c2cnc(NC3(C4(c5ccccc5)CC4)CC3)nc2)o1` [I.170, 5-[5-(difluoromethyl)-1,3,4-oxadiazol-2-yl]-N-[1′-phenyl[1,1′-bi(cyclopropyl)]-1-yl]pyrimidin-2-amine] gave a pest or weed control at 500 µg/mL [2] of 90 to 100%, a pest or weed control at 500 ppm [1] of 70 to 79% and a chromatographic logP [3, 7] of 3.64.

With `FC(F)c1nnc(-c2cnc(Nc3ccccc3-c3ccccc3)nc2)o1` [I.166, N-([biphenyl]-2-yl)-5-[5-(difluoromethyl)-1,3,4-oxadiazol-2-yl]pyrimidin-2-amine] the pest or weed control at 500 µg/mL [4] was 90 to 100%, the pest or weed control at 500 µg/mL [2] was 70 to 79% and the inhibition of growth at 20 µg/mL [5] was 80 to 89%. For the same molecule, the pest or weed control at 500 µg/mL [6] was 90 to 100% and the chromatographic logP [3, 8] was 3.37.

Work on `FC(F)c1nnc(-c2cnc(Nc3ccccc3)nc2)o1` [I.076, 5-[5-(difluoromethyl)-1,3,4-oxadiazol-2-yl]-N-phenylpyrimidin-2-amine] yielded a pest or weed control at 500 µg/mL [2] of 90 to 100% and a pest or weed control at 500 ppm [1] of 90 to 100%.

`COc1cccc(C2(Nc3ncc(-c4nnc(C(F)F)o4)cn3)CC2)c1` [I.156, 5-[5-(difluoromethyl)-1,3,4-oxadiazol-2-yl]-N-[1-(3-methoxyphenyl)cyclopropyl]pyrimidin-2-amine] showed a pest or weed control at 500 µg/mL [4] of 90 to 100%, a pest or weed control at 500 µg/mL [2] of 90 to 100% and a pest or weed control at 500 µg/mL [6] of 90 to 100%. It also gave a chromatographic logP [3, 8] of 2.62.

Work on `Fc1cccc(F)c1C1(Nc2ncc(-c3nnc(C(F)F)o3)cn2)CCC1` [I.177, 5-[5-(difluoromethyl)-1,3,4-oxadiazol-2-yl]-N-[1-(2,6-difluorophenyl)cyclobutyl]pyrimidin-2-amine] yielded a pest or weed control at 500 µg/mL [4] of 90 to 100%, a pest or weed control at 500 µg/mL [2] of 80 to 89% and an inhibition of growth at 20 µg/mL [5] of 90 to 100%. For the same molecule, the pest or weed control at 500 µg/mL [6] was 90 to 100% and the chromatographic logP [3, 7] was 3.5.

For `Fc1ccc(-c2ncc(-c3nnc(C(F)F)o3)cn2)cc1` [I.077, 5-[5-(difluoromethyl)-1,3,4-oxadiazol-2-yl]-2-(4-fluorophenyl)pyrimidine], the inhibition of growth at 20 µg/mL [5] was 90 to 100% and the pest or weed control at 500 ppm [1] was 70 to 79%.

`Fc1ccccc1Nc1ncc(-c2nnc(C(F)(F)F)o2)cn1` [I.116, N-(2-fluorophenyl)-5-[5-(trifluoromethyl)-1,3,4-oxadiazol-2-yl]pyrimidin-2-amine] gave a pest or weed control at 500 ppm [1] of 80 to 89% and a chromatographic logP [3, 8] of 2.99.

With `FC(F)c1nnc(-c2cnc(NCC3(c4ccccc4)CC3)nc2)o1` [I.135, 5-[5-(difluoromethyl)-1,3,4-oxadiazol-2-yl]-N-[(1-phenylcyclopropyl)methyl]pyrimidin-2-amine] the pest or weed control at 500 µg/mL [2] was 90 to 100%, the inhibition of growth at 20 µg/mL [5] was 80 to 89% and the pest or weed control at 500 ppm [1] was 70 to 79%. It also gave a chromatographic logP [3, 8] of 3.25.

In the case of `Cc1ccc(C2(Nc3ncc(-c4nnc(C(F)F)o4)cn3)CC2)cc1` [I.133, 5-[5-(difluoromethyl)-1,3,4-oxadiazol-2-yl]-N-[1-(4-methylphenyl)cyclopropyl]pyrimidin-2-amine], the pest or weed control at 500 µg/mL [4] is reported as 90 to 100%, the pest or weed control at 500 µg/mL [2] is reported as 70 to 79% and the pest or weed control at 500 µg/mL [6] is reported as 90 to 100%. The chromatographic logP [3, 8] was 3.

Molecule `O=C(Cc1ccccc1)Nc1ccc(-c2nnc(C(F)F)o2)cn1` [I.050, N-{5-[5-(difluoromethyl)-1,3,4-oxadiazol-2-yl]pyridin-2-yl}-2-phenylacetamide] has a pest or weed control at 500 ppm [1] of 80 to 89%.

For `Fc1ccccc1Nc1ncc(-c2nnc(C(F)F)s2)cn1` [I.113, 5-[5-(difluoromethyl)-1,3,4-thiadiazol-2-yl]-N-(2-fluorophenyl)pyrimidin-2-amine], the pest or weed control at 500 µg/mL [2] was 90 to 100%, the pest or weed control at 500 ppm [1] was 90 to 100% and the chromatographic logP [3, 8] was 2.77.

Molecule `Nc1ccc(-c2nnc(C(F)F)o2)cn1` [I.030, 5-[5-(difluoromethyl)-1,3,4-oxadiazol-2-yl]pyridin-2-amine] has a pest or weed control at 500 ppm [1] of 80 to 89%.

`FC(F)c1nnc(-c2cnc(NC3(c4ccccn4)CCC3)nc2)o1` [I.137, 5-[5-(difluoromethyl)-1,3,4-oxadiazol-2-yl]-N-[1-(pyridin-2-yl)cyclobutyl]pyrimidin-2-amine] gave a pest or weed control at 500 µg/mL [4] of 90 to 100%, a pest or weed control at 500 µg/mL [2] of 90 to 100% and a pest or weed control at 500 µg/mL [6] of 90 to 100%. It also gave a chromatographic logP [3, 8] of 1.2.

`COc1ccccc1CN(OC)c1ncc(-c2nnc(C(F)F)o2)cn1` [I.161, N-{5-[5-(difluoromethyl)-1,3,4-oxadiazol-2-yl]pyrimidin-2-yl}-N-(2-methoxybenzyl)-O-methylhydroxylamine] showed a pest or weed control at 500 ppm [1] of 70 to 79% and a chromatographic logP [3, 8] of 2.97.

Work on `CC(=O)Nc1ccc(-c2nnc(C(F)F)o2)cn1` [I.034, N-{5-[5-(difluoromethyl)-1,3,4-oxadiazol-2-yl]pyridin-2-yl}acetamide] yielded a pest or weed control at 500 ppm [1] of 80 to 89%.

In the case of `CC1(C(=O)Nc2ccc(-c3nnc(C(F)F)o3)cn2)CC1` [I.045, N-{5-[5-(difluoromethyl)-1,3,4-oxadiazol-2-yl]pyridin-2-yl}-1-methylcyclopropanecarboxamide], the pest or weed control at 500 µg/mL [2] is reported as 90 to 100% and the pest or weed control at 500 ppm [1] is reported as 90 to 100%.

In the case of `FC(F)c1nnc(-c2cnc(NC3(c4ccccc4)CCCC3)nc2)o1` [I.153, 5-[5-(difluoromethyl)-1,3,4-oxadiazol-2-yl]-N-(1-phenylcyclopentyl)pyrimidin-2-amine], the pest or weed control at 500 ppm [1] is reported as 70 to 79% and the chromatographic logP [3, 8] is reported as 3.57.

Molecule `CC(C)(Nc1ncc(-c2nnc(C(F)F)o2)cn1)c1ccc(F)cc1` [I.150, 5-[5-(difluoromethyl)-1,3,4-oxadiazol-2-yl]-N-[2-(4-fluorophenyl)propan-2-yl]pyrimidin-2-amine] has a pest or weed control at 500 µg/mL [4] of 90 to 100%, a pest or weed control at 500 µg/mL [2] of 70 to 79% and an inhibition of growth at 20 µg/mL [5] of 80 to 89%. For the same molecule, the pest or weed control at 500 µg/mL [6] was 90 to 100% and the chromatographic logP ([3]; Method A: LC-UV, acidic range, 0.1% formic acid in water and acetonitrile, read-out: Log P) was 3.26.

Work on `COc1ccc(C2(Nc3ncc(-c4nnc(C(F)F)o4)cn3)CC2)cc1` [I.157, 5-[5-(difluoromethyl)-1,3,4-oxadiazol-2-yl]-N-[1-(4-methoxyphenyl)cyclopropyl]pyrimidin-2-amine] yielded a pest or weed control at 500 µg/mL [4] of 90 to 100%, a pest or weed control at 500 µg/mL [2] of 70 to 79% and an inhibition of growth at 20 µg/mL [5] of 80 to 89%. The pest or weed control at 500 µg/mL [6] was 90 to 100% and the chromatographic logP [3, 8] was 2.62.

Work on `CC(Sc1ncc(-c2nnc(C(F)F)o2)cn1)c1ccccc1` (racemic) [I.123, 5-[5-(difluoromethyl)-1,3,4-oxadiazol-2-yl]-2-{[(1RS)-1-phenylethyl]sulfanyl}pyrimidine] yielded an inhibition of growth at 20 µg/mL [5] of 90 to 100%, a pest or weed control at 500 ppm [1] of 90 to 100% and a chromatographic logP [3, 8] of 3.72.

Reference: US20220144815A1, “1,3,4-OXADIAZOLES AND THEIR DERIVATIVES AS NEW ANTIFUNGAL AGENTS” (Bayer Aktiengesellschaft, priority 2018, published 2022)
